Test results from PubChem BioAssay AID2060900 (Molecular Pharmacology Branch, DTP, NCI, 2025).

Test system: 521955-158-R2-J5-PDC complex spheroids, viability
Assay: Anticancer human tumor 521955-158-R2-J5-PDC patient-derived pancreatic carcinoma cell line growth inhibition [RAS]
Conditions: for IC50: curve of first compound; for viability, T/C: stronger effect = lower value
In short: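 Multi-cell-type spheroids: tumor cells plus HUVEC endothelial cells and mesenchymal stem cells. RAS-pathway inhibitors were combined with targeted agents, each dosed in half-log steps down from clinical Cmax, or from 10 microM when Cmax was unknown.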

[1] = second compound 0.000949 µM, first compound 0.00316 µM
[2] = second compound 0.000949 µM, first compound 0.01 µM
[3] = second compound 0.000949 µM, first compound 0.0316 µM
[4] = second compound 0.000949 µM, first compound 0.1 µM
[5] = second compound 0.003 µM, first compound 0.00316 µM
[6] = second compound 0.003 µM, first compound 0.01 µM
[7] = second compound 0.003 µM, first compound 0.0316 µM
[8] = second compound 0.003 µM, first compound 0.1 µM
[9] = second compound 0.00949 µM, first compound 0.00316 µM
[10] = second compound 0.00949 µM, first compound 0.01 µM
[11] = second compound 0.00949 µM, first compound 0.0316 µM
[12] = second compound 0.00949 µM, first compound 0.1 µM
[13] = second compound 0.03 µM, first compound 0.00316 µM
[14] = second compound 0.03 µM, first compound 0.01 µM
[15] = second compound 0.03 µM, first compound 0.0316 µM
[16] = second compound 0.03 µM, first compound 0.1 µM
[17] = second compound 0.0949 µM, first compound 0.00316 µM
[18] = second compound 0.0949 µM, first compound 0.01 µM
[19] = second compound 0.0949 µM, first compound 0.0316 µM
[20] = second compound 0.0949 µM, first compound 0.1 µM
[21] = second compound 0.3 µM, first compound 0.00316 µM
[22] = second compound 0.3 µM, first compound 0.01 µM
[23] = second compound 0.3 µM, first compound 0.0316 µM
[24] = second compound 0.3 µM, first compound 0.1 µM
[25] = second compound 0.000949 µM, first compound 0.316 µM
[26] = second compound 0.000949 µM, first compound 1 µM
[27] = second compound 0.000949 µM, first compound 3.16 µM
[28] = second compound 0.000949 µM, first compound 10 µM
[29] = second compound 0.003 µM, first compound 0.316 µM
[30] = second compound 0.003 µM, first compound 1 µM
[31] = second compound 0.003 µM, first compound 3.16 µM
[32] = second compound 0.003 µM, first compound 10 µM
[33] = second compound 0.00949 µM, first compound 0.316 µM
[34] = second compound 0.00949 µM, first compound 1 µM
[35] = second compound 0.00949 µM, first compound 3.16 µM
[36] = second compound 0.00949 µM, first compound 10 µM
[37] = second compound 0.03 µM, first compound 0.316 µM
[38] = second compound 0.03 µM, first compound 1 µM
[39] = second compound 0.03 µM, first compound 3.16 µM
[40] = second compound 0.03 µM, first compound 10 µM
[41] = second compound 0.0949 µM, first compound 0.316 µM
[42] = second compound 0.0949 µM, first compound 1 µM
[43] = second compound 0.0949 µM, first compound 3.16 µM
[44] = second compound 0.0949 µM, first compound 10 µM
[45] = second compound 0.3 µM, first compound 0.316 µM
[46] = second compound 0.3 µM, first compound 1 µM
[47] = second compound 0.3 µM, first compound 3.16 µM
[48] = second compound 0.3 µM, first compound 10 µM
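Note: compound exposure lasted seven days before the viability read.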
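Throughout, for viability, T/C: spheroids also contain HUVEC endothelial cells and mesenchymal stem cells as stroma.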

CC(C)n1nc(-c2ccc3oc(N)nc3c2)c2c(N)ncnc21 + CCn1c(-c2cc(N3CCN(C)CC3)cnc2C(C)OC)c2c3cc(ccc31)-c1csc(n1)CC(NC(=O)C1CC1C)C(=O)N1CCCC(N1)C(=O)OCC(C)(C)C2
IC50 (second compound 0.000949 µM): < 0.316 nM
IC50 (second compound 0.003 µM): < 0.316 nM
IC50 (second compound 0.00949 µM): < 0.316 nM
IC50 (second compound 0.03 µM): < 0.316 nM
IC50 (second compound 0.0949 µM): < 0.316 nM
IC50 (second compound 0.3 µM): < 0.316 nM
viability, T/C (second compound 0.000949 µM, first compound 0.000316 µM): 38.5%
viability, T/C (second compound 0.000949 µM, first compound 0.001 µM): 40.2%
viability, T/C [1]: 37.6%
viability, T/C [2]: 39.8%
viability, T/C [3]: 22.7%
viability, T/C [4]: 21.2%
viability, T/C (second compound 0.003 µM, first compound 0.000316 µM): 34.6%
viability, T/C (second compound 0.003 µM, first compound 0.001 µM): 38.8%
viability, T/C [5]: 28.7%
viability, T/C [6]: 22.6%
viability, T/C [7]: 11.2%
viability, T/C [8]: 7.9%
viability, T/C (second compound 0.00949 µM, first compound 0.000316 µM): 31.3%
viability, T/C (second compound 0.00949 µM, first compound 0.001 µM): 30.2%
viability, T/C [9]: 34.9%
viability, T/C [10]: 21.4%
viability, T/C [11]: 14.2%
viability, T/C [12]: 6.83%
viability, T/C (second compound 0.03 µM, first compound 0.000316 µM): 25.3%
viability, T/C (second compound 0.03 µM, first compound 0.001 µM): 22%
viability, T/C [13]: 20.4%
viability, T/C [14]: 17.9%
viability, T/C [15]: 11.7%
viability, T/C [16]: 6.04%
viability, T/C (second compound 0.0949 µM, first compound 0.000316 µM): 11.8%
viability, T/C (second compound 0.0949 µM, first compound 0.001 µM): 11%
viability, T/C [17]: 15.8%
viability, T/C [18]: 12.2%
viability, T/C [19]: 10%
viability, T/C [20]: 3.64%
viability, T/C (second compound 0.3 µM, first compound 0.000316 µM): 9.8%
viability, T/C (second compound 0.3 µM, first compound 0.001 µM): 10.4%
viability, T/C [21]: 7.93%
viability, T/C [22]: 7.87%
viability, T/C [23]: 6.76%
viability, T/C [24]: 3.75%

CC1(O)CCCC1n1c(=O)c(C(F)F)cc2cnc(NC3CCN(S(C)(=O)=O)CC3)nc21 (stereo not drawn) + CCn1c(-c2cc(N3CCN(C)CC3)cnc2C(C)OC)c2c3cc(ccc31)-c1csc(n1)CC(NC(=O)C1CC1C)C(=O)N1CCCC(N1)C(=O)OCC(C)(C)C2
IC50 (second compound 0.000949 µM): 31.6 nM
IC50 (second compound 0.003 µM): < 31.6 nM
IC50 (second compound 0.00949 µM): < 31.6 nM
IC50 (second compound 0.03 µM): < 31.6 nM
IC50 (second compound 0.0949 µM): < 31.6 nM
IC50 (second compound 0.3 µM): < 31.6 nM
viability, T/C [3]: 33%
viability, T/C [4]: 39%
viability, T/C [25]: 36.6%
viability, T/C [26]: 42.8%
viability, T/C [27]: 63.2%
viability, T/C [28]: 9%
viability, T/C [7]: 35.6%
viability, T/C [8]: 34.5%
viability, T/C [29]: 37.5%
viability, T/C [30]: 43.1%
viability, T/C [31]: 50.5%
viability, T/C [32]: 10.9%
viability, T/C [11]: 29.2%
viability, T/C [12]: 29.9%
viability, T/C [33]: 33.2%
viability, T/C [34]: 32.6%
viability, T/C [35]: 49.6%
viability, T/C [36]: 9.41%
viability, T/C [15]: 18.9%
viability, T/C [16]: 20.1%
viability, T/C [37]: 20.8%
viability, T/C [38]: 24.8%
viability, T/C [39]: 28.9%
viability, T/C [40]: 6.82%
viability, T/C [19]: 10.6%
viability, T/C [20]: 13.1%
viability, T/C [41]: 13.9%
viability, T/C [42]: 16.2%
viability, T/C [43]: 21.5%
viability, T/C [44]: 7%
viability, T/C [23]: 10.8%
viability, T/C [24]: 11.3%
viability, T/C [45]: 11.2%
viability, T/C [46]: 13.9%
viability, T/C [47]: 19.1%
viability, T/C [48]: 6.07%

CCN1CCN(Cc2ccc(Nc3ncc(F)c(-c4cc(F)c5nc(C)n(C(C)C)c5c4)n3)nc2)CC1 + CCn1c(-c2cc(N3CCN(C)CC3)cnc2C(C)OC)c2c3cc(ccc31)-c1csc(n1)CC(NC(=O)C1CC1C)C(=O)N1CCCC(N1)C(=O)OCC(C)(C)C2
IC50 (second compound 0.000949 µM): < 3.16 nM
IC50 (second compound 0.003 µM): < 3.16 nM
IC50 (second compound 0.00949 µM): < 3.16 nM
IC50 (second compound 0.03 µM): < 3.16 nM
IC50 (second compound 0.0949 µM): < 3.16 nM
IC50 (second compound 0.3 µM): < 3.16 nM
viability, T/C [1]: 43.2%
viability, T/C [2]: 39.4%
viability, T/C [3]: 39.4%
viability, T/C [4]: 31.6%
viability, T/C [25]: 43.6%
viability, T/C [26]: 47.6%
viability, T/C [5]: 39.4%
viability, T/C [6]: 40.9%
viability, T/C [7]: 41.2%
viability, T/C [8]: 39.2%
viability, T/C [29]: 37.9%
viability, T/C [30]: 36.6%
viability, T/C [9]: 35.8%
viability, T/C [10]: 30.1%
viability, T/C [11]: 28.4%
viability, T/C [12]: 22.8%
viability, T/C [33]: 27.5%
viability, T/C [34]: 25.9%
viability, T/C [13]: 23%
viability, T/C [14]: 18.4%
viability, T/C [15]: 17%
viability, T/C [16]: 16.8%
viability, T/C [37]: 16.4%
viability, T/C [38]: 16.5%
viability, T/C [17]: 12.1%
viability, T/C [18]: 11%
viability, T/C [19]: 11.4%
viability, T/C [20]: 8.7%
viability, T/C [41]: 13.6%
viability, T/C [42]: 14.8%
viability, T/C [21]: 9.79%
viability, T/C [22]: 8.72%
viability, T/C [23]: 10.5%
viability, T/C [24]: 10%
viability, T/C [45]: 13.9%
viability, T/C [46]: 13.1%

C[C@@H](NC(=O)c1ncnc(N)c1Cl)c1ncc(C(=O)Nc2cc(C(F)(F)F)c(Cl)cn2)s1 + CCn1c(-c2cc(N3CCN(C)CC3)cnc2C(C)OC)c2c3cc(ccc31)-c1csc(n1)CC(NC(=O)C1CC1C)C(=O)N1CCCC(N1)C(=O)OCC(C)(C)C2
IC50 (second compound 0.000949 µM): < 31.6 nM
IC50 (second compound 0.003 µM): < 31.6 nM
IC50 (second compound 0.00949 µM): < 31.6 nM
IC50 (second compound 0.03 µM): < 31.6 nM
IC50 (second compound 0.0949 µM): < 31.6 nM
IC50 (second compound 0.3 µM): < 31.6 nM
viability, T/C [3]: 49.2%
viability, T/C [4]: 50.3%
viability, T/C [25]: 50.4%
viability, T/C [26]: 48.9%
viability, T/C [27]: 51.3%
viability, T/C [28]: 49%
viability, T/C [7]: 39.9%
viability, T/C [8]: 39.5%
viability, T/C [29]: 45.2%
viability, T/C [30]: 38.9%
viability, T/C [31]: 47.9%
viability, T/C [32]: 40.7%
viability, T/C [11]: 39.9%
viability, T/C [12]: 34.2%
viability, T/C [33]: 40.8%
viability, T/C [34]: 37%
viability, T/C [35]: 36.4%
viability, T/C [36]: 38.7%
viability, T/C [15]: 26.9%
viability, T/C [16]: 29.7%
viability, T/C [37]: 31%
viability, T/C [38]: 22.4%
viability, T/C [39]: 29.2%
viability, T/C [40]: 21.6%
viability, T/C [19]: 11.8%
viability, T/C [20]: 12.6%
viability, T/C [41]: 18.7%
viability, T/C [42]: 16.8%
viability, T/C [43]: 17.8%
viability, T/C [44]: 17.8%
viability, T/C [23]: 11.7%
viability, T/C [24]: 13.2%
viability, T/C [45]: 13.5%
viability, T/C [46]: 12.4%
viability, T/C [47]: 15.2%
viability, T/C [48]: 12.3%
